Experimental data taken from paper PMC10632401, “Cell-free biosynthesis combined with deep learning accelerates de novo-development of antimicrobial peptides” (Nature Communications, 2023).
No end group written: not given here.

Legend:
E. coli = format: cell-based, Escherichia coli; conditions: daily passage from cells grown at half-MIC, n=3
P. aeruginosa DSM 1117 = conditions: DSM 1117, 20 h
[1] = system: E. faecium (isolate from the gut of the cow); conditions: 20 h
[2] = system: A. baumannii (isolate from the human abdominal wall); conditions: 20 h
[3] = system: S. aureus DSM 11729 (MRSA); conditions: DSM 11729, 20 h
E. coli MG1655 = conditions: MG1655, 20 h
B. subtilis PY79 = conditions: PY79, 20 h
S. pneumoniae D39 = conditions: D39, 20 h
in vitro = conditions: human
K. pneumoniae DSM 30104 = conditions: DSM 30104, 20 h
Escherichia coli MG1655 = assay: Outer membrane vesicle (OMV) release after AMP treatment; format: cell-based; conditions: ¼ MIC, 90 min
Description: Escherichia coli MG1655 was grown on MacConkey agar (Carl Roth, Karlsruhe, Germany) plates overnight. For overnight culture, a single colony was used for inoculation of 2 mL LB media at 37 °C, 160 rpm (MaxQ 6000, Thermo Fisher Scientific, Karlsruhe, Germany). Bacterial culture was transferred to 10 mL fresh LB media and incubated (1 h, 37 °C, 160 rpm). The required amount of bacteria was treated with ¼ MIC of the AMPs #3, #5, #10, #13, #15, #16, and #27, left untreated for control or was treated with acetic acid and BSA as solvent control (90 min, 37 °C, 160 rpm). Samples were centrifuged (4,500 x g, 15 min, 4 °C; Multifuge X3R, Thermo Fisher Scientific), the supernatant was sterile filtered (0.22 µm) and afterwards concentrated by the factor of 20 using 100 kDa molecular weight cut-off filters (Merck KGaA, Darmstadt, Germany). To determine the number of released vesicles, samples were measured by nano-flow cytometry (nFCM) using a NanoAnalyzer (NanoFCM Co., Ltd, Nottingham, UK)[64].

Row | Molecule | increase in MIC during 21 days of serial passage (E. coli) | MIC P. aeruginosa (P. aeruginosa DSM 1117) [µM] | MIC E. faecium [1] [µM] | MIC A. baumannii [2] [µM] | MIC S. aureus (MRSA) [3] [µM] | E. coli MIC (E. coli MG1655) [µM] | B. subtilis MIC (B. subtilis PY79) [µM] | MIC S. pneumoniae (S. pneumoniae D39) [µM] | CC50 at 24 h (in vitro) [µM] | MIC K. pneumoniae (K. pneumoniae DSM 30104) [µM] | release of outer membrane vesicles (OMV) compared to untreated E. coli (Escherichia coli MG1655)
1 | C[C@@H](O)[C@H]1C(=O)N2C(C(=O)O)=C(SCCN=CN)C[C@H]12 [imipenem] | up to 8 fold |  |  |  |  |  |  |  |  |  | 
2 | H-MKEKKFFFFCFKKRRGFYKRRFFCKTTCFTYCFYKPRGTKTMPYVFSE-NH2 (cysteines drawn unpaired) [AMP #14] |  | 12.5 | 6.3 | 25.0 | 25.0 |  |  |  |  |  | 
3 | MKQPSKTKTHFKYFLLFLKSVKKVAGFKKKKKKYHWRSYKEGSCFRKRT-NH2 [AMP #13] |  | 12.5 | 1.6 | 3.1 |  | 25.0 | 1.6 | 12.5 | 25.8 | 6.3 | 
4 | MRRKTPVKWKTFFKALKHKKKIFKKTFEKFKFLAKGPAFLKGFDQKLKS-NH2 [AMP #5] |  | 3.1 | 1.6 | 1.0 |  | 2.1 | 0.5 | 25.0 | 68.4 | 0.8 | 
5 | polymyxin B |  |  |  |  |  |  |  |  |  |  | only significantly different group
